PMC9120017, “Inhibition mechanism of the chloride channel TMEM16A by the pore blocker 1PBC” (Nature Communications, 2022)
Where two headings read alike, the source gives them in different places.

Biological target: T1, mouse TMEM16A mutant G558P (Mus musculus, UniProt Q8BHY3, G558P)
T1 construct: expressed in transfected cells; host or cells: HEK293T
T1 sequence (Q8BHY3 1-960 G558P): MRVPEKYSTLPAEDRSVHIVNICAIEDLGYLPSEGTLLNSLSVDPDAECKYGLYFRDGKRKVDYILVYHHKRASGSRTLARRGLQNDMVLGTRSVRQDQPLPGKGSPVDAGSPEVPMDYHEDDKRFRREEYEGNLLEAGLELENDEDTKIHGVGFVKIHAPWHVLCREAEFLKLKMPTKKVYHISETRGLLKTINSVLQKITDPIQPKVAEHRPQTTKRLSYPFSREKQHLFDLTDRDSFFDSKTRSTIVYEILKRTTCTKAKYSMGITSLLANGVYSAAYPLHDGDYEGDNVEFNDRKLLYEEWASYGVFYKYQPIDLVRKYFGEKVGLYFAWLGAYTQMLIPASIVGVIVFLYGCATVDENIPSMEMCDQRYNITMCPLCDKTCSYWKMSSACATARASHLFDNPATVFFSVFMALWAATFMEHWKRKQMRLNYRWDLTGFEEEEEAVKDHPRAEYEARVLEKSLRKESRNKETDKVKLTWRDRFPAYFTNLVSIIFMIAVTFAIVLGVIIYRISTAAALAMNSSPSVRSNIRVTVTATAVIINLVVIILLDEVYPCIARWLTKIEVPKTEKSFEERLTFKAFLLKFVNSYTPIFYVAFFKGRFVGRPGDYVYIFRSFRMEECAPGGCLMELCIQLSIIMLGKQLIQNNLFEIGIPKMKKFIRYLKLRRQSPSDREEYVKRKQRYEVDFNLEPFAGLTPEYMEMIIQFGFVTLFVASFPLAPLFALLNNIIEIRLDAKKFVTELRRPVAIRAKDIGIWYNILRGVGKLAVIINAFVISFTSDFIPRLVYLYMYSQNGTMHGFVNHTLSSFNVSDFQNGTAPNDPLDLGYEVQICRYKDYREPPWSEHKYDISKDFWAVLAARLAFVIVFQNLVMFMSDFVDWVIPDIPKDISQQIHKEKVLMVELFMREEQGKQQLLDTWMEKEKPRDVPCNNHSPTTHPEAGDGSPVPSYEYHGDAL
Assay: Inside-out patch recording of 1PBC block, mutant G558P
Type: cell-based
Settings: for remaining activity at 1 µM: 1PBC conc 1; for remaining activity at 1 µM / remaining activity at 3 µM / remaining activity at 10 µM / remaining activity at 30 µM / remaining activity at 100 µM: read-out: relative current in 1PBC (avr); for remaining activity at 3 µM: 1PBC conc 3; for remaining activity at 10 µM: 1PBC conc 10; for remaining activity at 30 µM: 1PBC conc 30; for remaining activity at 100 µM: 1PBC conc 100
Protocol: HEK293T cells (ATCC CRL-1573) were maintained in Dulbecco’s modified Eagle’s medium (DMEM; Sigma-Aldrich) supplemented with 10 U ml^−1 penicillin, 0.1 mg ml^−1 streptomycin (Sigma-Aldrich), 2 mM L-glutamine (Sigma-Aldrich), and 10% FBS (Sigma-Aldrich) in a humidified atmosphere containing 5% CO2 at 37 °C. HEK293S GnTI^− cells (ATCC CRL-3022) were maintained in HyClone HyCell TransFx-H medium (GE Healthcare) supplemented with 10 U ml^−1 penicillin, 0.1 mg ml^−1 streptomycin, 4 mM L-glutamine, 0.15% poloxamer 188 (Sigma-Aldrich), and 1% FBS in an atmosphere containing 5% CO2 at 185 rpm at 37 °C. The ac splice variant of mouse TMEM16A (UniProt ID: Q8BHY3), mouse TMEM16B (UniProt ID: Q8CFW1), or mouse TMEM16F (UniProt ID: Q6P9J9) bearing a 3C cleavage site, a Venus YFP, a Myc tag, and a Streptavidin-binding peptide (SBP) downstream of the open reading frame in a modified pcDNA3.1 vector (Invitrogen) were used as described previously[21],[31]. Mutations were introduced using a modified QuikChange method[58] and were verified by sequencing.
HEK293T cells were transfected with 3–4 μg DNA per 6 cm Petri dish using the calcium phosphate co-precipitation method and were used within 24–96 h after transfection. Recordings were performed on inside-out patches excised from HEK293T cells expressing the construct of interest. Patch pipettes were pulled from borosilicate glass capillaries (O.D. 1.5 mm, I.D. 0.86 mm, Sutter Instrument) and were fire-polished with a microforge (Narishige) before use. Pipette resistance was typically 3–8 MΩ when filled with the recording solutions detailed below. Seal resistance was typically 4 GΩ or higher. Voltage-clamp recordings were made using Axopatch 200B, Digidata 1550, and Clampex 10.7 (Molecular Devices). Analog signals were filtered with the in-built 4-pole Bessel filter at 10 kHz and were digitized at 20 kHz. Solution exchange was achieved using a gravity-fed system through a theta glass pipette mounted on an ultra-fast piezo-driven stepper (Siskiyou). […] All recordings were performed at 20 °C.
A symmetrical ionic condition was used throughout. Stock solution with Ca^2+-EGTA contained 150 mM NaCl, 5.99 mM Ca(OH)2, 5 mM EGTA, and 10 mM HEPES at pH 7.40. Stock solution with EGTA contained 150 mM NaCl, 5 mM EGTA, and 10 mM HEPES at pH 7.40. Free Ca^2+ concentrations were adjusted by mixing the stock solutions at the required ratios calculated using the WEBMAXC program (http://web.stanford.edu/~cpatton/webmaxcS.htm). Patch pipettes were filled with the stock solution with Ca^2+-EGTA, which has a free Ca^2+ concentration of 1 mM. 1PBC (ChemBridge) stock was reconstituted in anhydrous DMSO (Sigma-Aldrich) at 100 mM and stored at −20 °C. Working solutions with 1PBC were prepared by serial dilution. Unless otherwise stated, experiments were performed at a saturating Ca^2+ concentration as shown in Supplementary Table 1 and the primary data were corrected for current rundown as described previously[21],[25].
Concentration-response relations, obtained from the ratio of the I-V plots before and after the application of the blocker, were fitted to the Hill equation,1 I/Imax=1/1+IC50/[blocker]^h where I/Imax is the normalized current responses, IC50 defines the concentration at which inhibition is at its half-maximum, and h is the Hill coefficient.

`N#Cc1c(C(F)(F)F)cc(O)n2c1nc1ccccc12` [1PBC] gave an IC50 (0 mV, 15 µM Ca2+) of 6.23 µM, a remaining activity at 1 µM (0 mV) of 83.9% and a remaining activity at 3 µM (0 mV) of 66.6%. For the same molecule, the remaining activity at 10 µM (0 mV) was 39.1%, the remaining activity at 30 µM (0 mV) was 18.8% and the remaining activity at 100 µM (0 mV) was 7.07%. For the same molecule, the “I/Imax_+80mV” value (1 μM 1PBC) was 0.7511, the I/Imax_-80mV (1 μM 1PBC, -80 mV) was 0.9508 and the “I/Imax_+80mV” value (3 μM 1PBC) was 0.5097. The I/Imax_-80mV (3 μM 1PBC, -80 mV) was 0.8567, the “I/Imax_+80mV” value (10 μM 1PBC) was 0.2409 and the I/Imax_-80mV (10 μM 1PBC, -80 mV) was 0.6177. For the same molecule, the “Effect of mutation G558P on block by 1PBC” value (15 µM Ca2+) was “did not interfere with block”, the “I/Imax_+80mV” value (30 μM 1PBC) was 0.1115 and the I/Imax_-80mV (30 μM 1PBC, -80 mV) was 0.3696. The “I/Imax_+80mV” value (100 μM 1PBC) was 0.03071, the I/Imax_-80mV (100 μM 1PBC, -80 mV) was 0.1483 and the IC50 (20 mV, 15 µM Ca2+) was 4.87 µM. For the same molecule, the remaining activity at 1 µM (20 mV) was 81.1%, the remaining activity at 3 µM (20 mV) was 60.9% and the remaining activity at 10 µM (20 mV) was 34%. It also gave a remaining activity at 30 µM (20 mV) of 15.5%, a remaining activity at 100 µM (20 mV) of 5.33% and an IC50 (40 mV, 15 µM Ca2+) of 3.94 µM. The remaining activity at 1 µM (40 mV) was 78.3%, the remaining activity at 3 µM (40 mV) was 56.7% and the remaining activity at 10 µM (40 mV) was 28.5%. For the same molecule, the remaining activity at 30 µM (40 mV) was 13.4%, the remaining activity at 100 µM (40 mV) was 4.84% and the IC50 (60 mV, 15 µM Ca2+) was 3.4 µM. The remaining activity at 1 µM (60 mV) was 75.9%, the remaining activity at 3 µM (60 mV) was 52.9% and the remaining activity at 10 µM (60 mV) was 26.1%. The remaining activity at 30 µM (60 mV) was 12%, the remaining activity at 100 µM (60 mV) was 3.75% and the IC50 (80 mV, 15 µM Ca2+) was 3.14 µM. The remaining activity at 1 µM (80 mV) was 75.1%, the remaining activity at 3 µM (80 mV) was 51% and the remaining activity at 10 µM (80 mV) was 24.1%. The remaining activity at 30 µM (80 mV) was 11.2%, the remaining activity at 100 µM (80 mV) was 3.07% and the IC50 (100 mV, 15 µM Ca2+) was 3.03 µM. For the same molecule, the remaining activity at 1 µM (100 mV) was 75.6%, the remaining activity at 3 µM (100 mV) was 50.3% and the remaining activity at 10 µM (100 mV) was 22.1%. The remaining activity at 30 µM (100 mV) was 10.7%, the remaining activity at 100 µM (100 mV) was 2.38% and the IC50 (120 mV, 15 µM Ca2+) was 3.26 µM. For the same molecule, the remaining activity at 1 µM (120 mV) was 77.2%, the remaining activity at 3 µM (120 mV) was 52.2% and the remaining activity at 10 µM (120 mV) was 23.4%. It also gave a remaining activity at 30 µM (120 mV) of 10.7%, a remaining activity at 100 µM (120 mV) of 2.42% and an IC50 (140 mV, 15 µM Ca2+) of 3.86 µM. The remaining activity at 1 µM (140 mV) was 81.4%, the remaining activity at 3 µM (140 mV) was 57% and the remaining activity at 10 µM (140 mV) was 25.2%. The remaining activity at 30 µM (140 mV) was 12%, the remaining activity at 100 µM (140 mV) was 3.17% and the IC50 (-20 mV, 15 µM Ca2+) was 7.94 µM. The remaining activity at 1 µM (-20 mV) was 86.7%, the remaining activity at 3 µM (-20 mV) was 72.3% and the remaining activity at 10 µM (-20 mV) was 44.1%. The remaining activity at 30 µM (-20 mV) was 22.2%, the remaining activity at 100 µM (-20 mV) was 8.82% and the IC50 (-40 mV, 15 µM Ca2+) was 10.4 µM. For the same molecule, the remaining activity at 1 µM (-40 mV) was 89.5%, the remaining activity at 3 µM (-40 mV) was 77.5% and the remaining activity at 10 µM (-40 mV) was 50.6%. For the same molecule, the remaining activity at 30 µM (-40 mV) was 26.7%, the remaining activity at 100 µM (-40 mV) was 9.6% and the IC50 (-60 mV, 15 µM Ca2+) was 13.4 µM. It also gave a remaining activity at 1 µM (-60 mV) of 92.1%, a remaining activity at 3 µM (-60 mV) of 80.7% and a remaining activity at 10 µM (-60 mV) of 56.7%. For the same molecule, the remaining activity at 30 µM (-60 mV) was 32.1%, the remaining activity at 100 µM (-60 mV) was 12.3% and the IC50 (-80 mV, 15 µM Ca2+) was 17.1 µM. The remaining activity at 1 µM (-80 mV) was 95.1%, the remaining activity at 3 µM (-80 mV) was 85.7% and the remaining activity at 10 µM (-80 mV) was 61.8%. For the same molecule, the remaining activity at 30 µM (-80 mV) was 37%, the remaining activity at 100 µM (-80 mV) was 14.8% and the IC50 (-100 mV, 15 µM Ca2+) was 21.1 µM. For the same molecule, the remaining activity at 1 µM (-100 mV) was 96.1%, the remaining activity at 3 µM (-100 mV) was 88.1% and the remaining activity at 10 µM (-100 mV) was 66.8%. For the same molecule, the remaining activity at 30 µM (-100 mV) was 41.5%, the remaining activity at 100 µM (-100 mV) was 17.8% and the IC50 (-120 mV, 15 µM Ca2+) was 25.4 µM. For the same molecule, the remaining activity at 1 µM (-120 mV) was 98.5%, the remaining activity at 3 µM (-120 mV) was 90.8% and the remaining activity at 10 µM (-120 mV) was 71.2%. For the same molecule, the remaining activity at 30 µM (-120 mV) was 45.8%, the remaining activity at 100 µM (-120 mV) was 19.8% and the IC50 (-140 mV, 15 µM Ca2+) was 30 µM. For the same molecule, the remaining activity at 1 µM (-140 mV) was 100%, the remaining activity at 3 µM (-140 mV) was 92.8% and the remaining activity at 10 µM (-140 mV) was 74.7%. For the same molecule, the remaining activity at 30 µM (-140 mV) was 49.7%, the remaining activity at 100 µM (-140 mV) was 22.2% and the IC50 (G558P, V 0 mV) was 6.23 µM. For the same molecule, the IC50 (G558P, V 20 mV) was 4.87 µM, the IC50 (G558P, V 40 mV) was 3.94 µM and the IC50 (G558P, V 60 mV) was 3.4 µM. It also gave an IC50 (G558P, V 80 mV) of 3.14 µM, an IC50 (G558P, V 100 mV) of 3.03 µM and an IC50 (G558P, V 120 mV) of 3.26 µM. For the same molecule, the IC50 (G558P, V 140 mV) was 3.86 µM, the IC50 (G558P, V -20 mV) was 7.94 µM and the IC50 (G558P, V -40 mV) was 10.4 µM. It also gave an IC50 (G558P, V -60 mV) of 13.4 µM, an IC50 (G558P, V -80 mV) of 17.1 µM and an IC50 (G558P, V -100 mV) of 21.1 µM. It also gave an IC50 (G558P, V -120 mV) of 25.4 µM and an IC50 (G558P, V -140 mV) of 30 µM.
